Measurements from the kinase profiling compilation of Christmann-Franck et al. (2016).

Columns and labels:
Test in all cases: radiometric filter-binding kinase assay
PHKG1 (human) = PHKG1 (human) (UniProt Q16816)
FGFR1 (human) = FGFR1 (human) (UniProt P11362)
MAPK13 (human) = MAPK13 (human) (UniProt O15264)
CHEK2 (human) = CHEK2 (human) (UniProt O96017)
NTRK1 (human) = NTRK1 (human) (UniProt P04629)
AURKB (human) = AURKB (human) (UniProt Q96GD4)
RPS6KA1 KD1 KD2 (human) = RPS6KA1 KD1 KD2 (human) (UniProt Q15418)
MKNK1 (human) = MKNK1 (human) (UniProt Q9BUB5)
INSRR (human) = INSRR (human) (UniProt P14616)
MINK1 (human) = MINK1 (human) (UniProt Q8N4C8)
MKNK2 (human) = MKNK2 (human) (UniProt Q9HBH9)
PRKAA1 or PRKAA2 (rat) = conditions: accession and sequence are those of the human protein
CSK (human) = CSK (human) (UniProt P41240)
MYLK (human) = MYLK (human) (UniProt Q15746)
MAP3K9 (human) = MAP3K9 (human) (UniProt P80192)
CDK2 CCNA2 (human) = CDK2 CCNA2 (human) (UniProt P20248+P24941)
GSK3B (human) = GSK3B (human) (UniProt P49841)
PRKACA (human) = PRKACA (human) (UniProt P17612)
MAPK1 (human) = MAPK1 (human) (UniProt P28482)
MELK (human) = MELK (human) (UniProt Q14680)
ERBB4 (human) = ERBB4 (human) (UniProt Q15303)
MAP2K2 (human) = MAP2K2 (human) (UniProt P36507)
TTK (human) = TTK (human) (UniProt P33981)
CSNK2A1 (human) = CSNK2A1 (human) (UniProt P68400)
SRC (human) = SRC (human) (UniProt P12931)
EEF2K (human) = EEF2K (human) (UniProt O00418)
LCK (mouse) = conditions: accession and sequence are those of the human protein
MARK4 (human) = MARK4 (human) (UniProt Q96L34)
EPHB3 (human) = EPHB3 (human) (UniProt P54753)
IKBKB (human) = IKBKB (human) (UniProt O14920)
DAPK1 (human) = DAPK1 (human) (UniProt P53355)
ROCK2 (rat) = conditions: accession and sequence are those of the human protein
MAPKAPK3 (human) = MAPKAPK3 (human) (UniProt Q16644)
PRKCZ (human) = PRKCZ (human) (UniProt Q05513)
[1] = target: STK11 CAB39 STRADA (human) (UniProt Q9Y376+Q7RTN6+Q15831)

Sequence of MKNK1 (human) (Q9BUB5 whole entry, looked up): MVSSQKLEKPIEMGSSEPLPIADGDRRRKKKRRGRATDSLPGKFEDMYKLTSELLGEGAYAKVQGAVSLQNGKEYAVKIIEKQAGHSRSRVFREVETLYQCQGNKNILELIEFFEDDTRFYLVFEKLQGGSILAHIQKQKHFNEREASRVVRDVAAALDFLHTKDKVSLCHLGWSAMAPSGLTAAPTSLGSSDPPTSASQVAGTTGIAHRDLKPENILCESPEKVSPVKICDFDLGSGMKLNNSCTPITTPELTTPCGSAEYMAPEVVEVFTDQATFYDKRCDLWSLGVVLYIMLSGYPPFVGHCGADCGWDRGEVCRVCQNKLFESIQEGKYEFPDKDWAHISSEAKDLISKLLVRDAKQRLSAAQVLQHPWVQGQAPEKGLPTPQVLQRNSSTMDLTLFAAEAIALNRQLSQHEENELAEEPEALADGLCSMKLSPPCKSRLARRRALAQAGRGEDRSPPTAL
Sequence of MINK1 (human) (Q8N4C8 whole entry, looked up): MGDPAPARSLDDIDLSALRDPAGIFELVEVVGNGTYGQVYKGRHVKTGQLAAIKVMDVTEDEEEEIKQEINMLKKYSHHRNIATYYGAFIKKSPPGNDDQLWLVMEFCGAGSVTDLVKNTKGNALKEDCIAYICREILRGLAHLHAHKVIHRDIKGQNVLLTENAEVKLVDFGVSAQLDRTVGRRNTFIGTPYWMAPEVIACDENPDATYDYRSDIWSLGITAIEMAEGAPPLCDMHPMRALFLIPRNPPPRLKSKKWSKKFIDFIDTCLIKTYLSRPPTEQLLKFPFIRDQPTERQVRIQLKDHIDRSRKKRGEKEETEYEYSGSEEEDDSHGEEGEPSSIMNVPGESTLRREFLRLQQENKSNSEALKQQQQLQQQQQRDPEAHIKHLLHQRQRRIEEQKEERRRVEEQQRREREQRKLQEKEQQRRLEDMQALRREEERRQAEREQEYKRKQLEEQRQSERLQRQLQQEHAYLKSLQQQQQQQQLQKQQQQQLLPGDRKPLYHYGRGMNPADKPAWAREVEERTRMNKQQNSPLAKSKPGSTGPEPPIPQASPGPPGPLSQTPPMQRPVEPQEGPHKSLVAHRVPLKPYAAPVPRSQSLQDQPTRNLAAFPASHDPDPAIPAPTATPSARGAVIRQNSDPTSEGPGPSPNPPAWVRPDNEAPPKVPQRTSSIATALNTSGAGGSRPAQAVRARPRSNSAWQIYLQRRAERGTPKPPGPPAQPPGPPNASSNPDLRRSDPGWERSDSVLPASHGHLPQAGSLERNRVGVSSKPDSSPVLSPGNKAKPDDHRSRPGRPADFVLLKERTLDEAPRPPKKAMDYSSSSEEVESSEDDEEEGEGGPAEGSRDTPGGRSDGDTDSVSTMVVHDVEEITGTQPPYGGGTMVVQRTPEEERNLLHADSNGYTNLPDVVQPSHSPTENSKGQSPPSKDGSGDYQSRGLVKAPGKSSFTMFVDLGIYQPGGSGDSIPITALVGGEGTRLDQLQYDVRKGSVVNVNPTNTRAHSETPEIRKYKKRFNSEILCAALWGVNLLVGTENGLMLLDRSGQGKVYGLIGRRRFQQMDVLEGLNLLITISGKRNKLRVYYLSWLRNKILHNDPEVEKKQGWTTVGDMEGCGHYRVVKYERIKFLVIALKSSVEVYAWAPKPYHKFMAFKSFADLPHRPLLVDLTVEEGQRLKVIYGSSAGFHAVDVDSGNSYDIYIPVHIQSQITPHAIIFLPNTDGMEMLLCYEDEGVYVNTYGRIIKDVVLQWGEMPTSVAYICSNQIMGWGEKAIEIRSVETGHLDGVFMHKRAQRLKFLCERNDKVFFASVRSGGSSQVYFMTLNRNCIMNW
Sequence of INSRR (human) (P14616 whole entry, looked up): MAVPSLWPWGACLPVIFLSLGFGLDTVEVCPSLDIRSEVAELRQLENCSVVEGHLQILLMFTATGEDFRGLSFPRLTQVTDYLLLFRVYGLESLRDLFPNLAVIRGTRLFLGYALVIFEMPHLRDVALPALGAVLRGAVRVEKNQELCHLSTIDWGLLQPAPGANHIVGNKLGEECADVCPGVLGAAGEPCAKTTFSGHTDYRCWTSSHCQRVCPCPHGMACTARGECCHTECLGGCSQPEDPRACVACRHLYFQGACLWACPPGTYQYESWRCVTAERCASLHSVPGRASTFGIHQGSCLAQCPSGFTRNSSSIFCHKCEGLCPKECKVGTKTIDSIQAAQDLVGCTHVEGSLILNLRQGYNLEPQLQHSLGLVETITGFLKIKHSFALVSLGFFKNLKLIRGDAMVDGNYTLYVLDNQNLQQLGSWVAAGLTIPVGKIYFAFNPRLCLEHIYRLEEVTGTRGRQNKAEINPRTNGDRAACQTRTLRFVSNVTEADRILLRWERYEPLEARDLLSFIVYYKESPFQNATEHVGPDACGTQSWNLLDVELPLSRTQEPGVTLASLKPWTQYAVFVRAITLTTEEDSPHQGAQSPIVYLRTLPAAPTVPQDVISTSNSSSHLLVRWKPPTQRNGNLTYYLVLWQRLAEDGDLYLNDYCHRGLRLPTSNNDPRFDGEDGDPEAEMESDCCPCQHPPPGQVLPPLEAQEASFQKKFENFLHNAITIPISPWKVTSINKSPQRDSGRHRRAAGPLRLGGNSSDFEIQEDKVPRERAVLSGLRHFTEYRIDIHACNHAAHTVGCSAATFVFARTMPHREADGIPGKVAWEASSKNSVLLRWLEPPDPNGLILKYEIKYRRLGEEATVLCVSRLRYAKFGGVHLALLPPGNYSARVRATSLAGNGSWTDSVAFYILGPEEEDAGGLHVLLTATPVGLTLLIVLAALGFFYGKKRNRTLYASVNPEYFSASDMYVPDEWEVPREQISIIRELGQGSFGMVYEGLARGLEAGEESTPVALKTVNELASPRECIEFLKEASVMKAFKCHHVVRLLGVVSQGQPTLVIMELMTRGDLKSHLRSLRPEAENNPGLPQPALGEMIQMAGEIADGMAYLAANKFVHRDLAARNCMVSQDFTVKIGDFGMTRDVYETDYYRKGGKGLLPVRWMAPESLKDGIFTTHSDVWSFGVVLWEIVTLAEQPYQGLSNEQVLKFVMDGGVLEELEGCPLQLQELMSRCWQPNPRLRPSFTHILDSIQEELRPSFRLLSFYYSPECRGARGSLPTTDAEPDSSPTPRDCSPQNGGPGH
Sequence of CSK (human) (P41240 whole entry, looked up): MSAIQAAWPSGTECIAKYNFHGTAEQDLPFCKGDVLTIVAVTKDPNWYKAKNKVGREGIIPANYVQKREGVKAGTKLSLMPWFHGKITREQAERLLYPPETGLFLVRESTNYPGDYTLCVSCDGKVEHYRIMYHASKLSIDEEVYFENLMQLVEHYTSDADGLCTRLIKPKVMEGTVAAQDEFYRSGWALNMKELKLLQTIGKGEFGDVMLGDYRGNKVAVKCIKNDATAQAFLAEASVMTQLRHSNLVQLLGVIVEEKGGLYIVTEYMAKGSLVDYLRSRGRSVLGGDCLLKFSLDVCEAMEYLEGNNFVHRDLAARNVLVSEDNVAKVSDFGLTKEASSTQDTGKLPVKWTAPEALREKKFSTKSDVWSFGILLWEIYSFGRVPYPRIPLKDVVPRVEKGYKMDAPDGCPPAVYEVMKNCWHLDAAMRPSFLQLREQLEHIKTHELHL
Sequence of MAPK13 (human) (O15264 whole entry, looked up): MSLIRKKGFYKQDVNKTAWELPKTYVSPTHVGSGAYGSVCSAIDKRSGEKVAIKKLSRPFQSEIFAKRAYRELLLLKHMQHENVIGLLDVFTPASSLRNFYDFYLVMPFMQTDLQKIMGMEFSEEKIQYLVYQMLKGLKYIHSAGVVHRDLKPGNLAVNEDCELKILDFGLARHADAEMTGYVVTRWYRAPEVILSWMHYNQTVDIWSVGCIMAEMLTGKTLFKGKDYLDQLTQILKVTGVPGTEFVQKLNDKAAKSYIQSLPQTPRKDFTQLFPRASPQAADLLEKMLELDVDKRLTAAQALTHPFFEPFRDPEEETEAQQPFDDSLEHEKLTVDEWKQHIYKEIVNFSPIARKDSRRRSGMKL
Sequence of PRKCZ (human) (Q05513 whole entry, looked up): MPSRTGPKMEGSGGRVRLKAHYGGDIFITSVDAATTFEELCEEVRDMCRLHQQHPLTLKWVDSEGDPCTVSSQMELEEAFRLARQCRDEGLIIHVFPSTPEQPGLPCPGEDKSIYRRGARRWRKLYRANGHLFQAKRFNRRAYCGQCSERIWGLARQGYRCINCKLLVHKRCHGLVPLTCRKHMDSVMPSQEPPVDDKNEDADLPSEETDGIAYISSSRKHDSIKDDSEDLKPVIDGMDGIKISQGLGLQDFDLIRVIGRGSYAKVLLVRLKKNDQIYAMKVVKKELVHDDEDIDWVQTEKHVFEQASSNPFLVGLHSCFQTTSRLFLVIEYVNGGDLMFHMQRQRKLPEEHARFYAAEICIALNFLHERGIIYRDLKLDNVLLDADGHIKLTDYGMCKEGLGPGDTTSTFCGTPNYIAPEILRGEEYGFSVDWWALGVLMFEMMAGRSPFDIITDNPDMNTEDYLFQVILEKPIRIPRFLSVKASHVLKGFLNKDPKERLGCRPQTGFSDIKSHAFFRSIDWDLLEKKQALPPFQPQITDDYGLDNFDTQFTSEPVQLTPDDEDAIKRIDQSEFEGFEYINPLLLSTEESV
Sequence of AURKB (human) (Q96GD4 whole entry, looked up): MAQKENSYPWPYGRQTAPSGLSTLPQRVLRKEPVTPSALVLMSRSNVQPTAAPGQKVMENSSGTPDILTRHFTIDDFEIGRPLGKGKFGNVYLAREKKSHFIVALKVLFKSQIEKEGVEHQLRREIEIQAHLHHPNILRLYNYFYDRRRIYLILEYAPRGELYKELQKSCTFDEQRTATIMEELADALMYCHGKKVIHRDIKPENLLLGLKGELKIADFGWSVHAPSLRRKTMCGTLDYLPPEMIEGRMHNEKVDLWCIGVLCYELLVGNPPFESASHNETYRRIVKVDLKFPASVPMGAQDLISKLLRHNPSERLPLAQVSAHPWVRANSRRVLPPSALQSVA

O=C(Nc1ccccc1-c1cn2c(CN3CCNCC3)csc2n1)c1cnc2ccccc2n1
residual activity (PHKG1 (human); compound 0.1 µM): 96%
residual activity (PHKG1 (human); compound 1.0 µM): 53%
residual activity (PHKG1 (human); compound 10.0 µM): 14%
residual activity (FGFR1 (human); compound 0.1 µM): 103%
residual activity (FGFR1 (human); compound 1.0 µM): 91%
residual activity (FGFR1 (human); compound 10.0 µM): 68%
residual activity (MAPK13 (human); compound 0.1 µM): 91%
residual activity (MAPK13 (human); compound 1.0 µM): 78%
residual activity (MAPK13 (human); compound 10.0 µM): 85%
residual activity (CHEK2 (human); compound 0.1 µM): 85%
residual activity (CHEK2 (human); compound 1.0 µM): 93%
residual activity (CHEK2 (human); compound 10.0 µM): 54%
residual activity (NTRK1 (human); compound 1.0 µM): 47%
residual activity (NTRK1 (human); compound 10.0 µM): 30%
residual activity (AURKB (human); compound 1.0 µM): 93%
residual activity (AURKB (human); compound 10.0 µM): 90%
residual activity (RPS6KA1 KD1 KD2 (human); compound 0.1 µM): 88%
residual activity (RPS6KA1 KD1 KD2 (human); compound 1.0 µM): 66%
residual activity (RPS6KA1 KD1 KD2 (human); compound 10.0 µM): 34%
residual activity (MKNK1 (human); compound 0.1 µM): 92%
residual activity (MKNK1 (human); compound 1.0 µM): 100%
residual activity (MKNK1 (human); compound 10.0 µM): 97%
residual activity (INSRR (human); compound 0.1 µM): 73%
residual activity (INSRR (human); compound 1.0 µM): 77%
residual activity (INSRR (human); compound 10.0 µM): 53%
residual activity (MINK1 (human); compound 1.0 µM): 91%
residual activity (MINK1 (human); compound 10.0 µM): 55%
residual activity (MKNK2 (human); compound 0.1 µM): 90%
residual activity (MKNK2 (human); compound 1.0 µM): 92%
residual activity (MKNK2 (human); compound 10.0 µM): 96%
residual activity (PRKAA1 or PRKAA2 (rat); compound 0.1 µM): 83%
residual activity (PRKAA1 or PRKAA2 (rat); compound 1.0 µM): 88%
residual activity (PRKAA1 or PRKAA2 (rat); compound 10.0 µM): 60%
residual activity (CSK (human); compound 0.1 µM): 97%
residual activity (CSK (human); compound 1.0 µM): 85%
residual activity (CSK (human); compound 10.0 µM): 97%
residual activity (MYLK (human); compound 0.1 µM): 82%
residual activity (MYLK (human); compound 1.0 µM): 27%
residual activity (MYLK (human); compound 10.0 µM): 10%
residual activity (MAP3K9 (human); compound 1.0 µM): 92%
residual activity (MAP3K9 (human); compound 10.0 µM): 40%
residual activity (CDK2 CCNA2 (human); compound 0.1 µM): 88%
residual activity (CDK2 CCNA2 (human); compound 1.0 µM): 100%
residual activity (CDK2 CCNA2 (human); compound 10.0 µM): 115%
residual activity (GSK3B (human); compound 1.0 µM): 78%
residual activity (GSK3B (human); compound 10.0 µM): 67%
residual activity (PRKACA (human); compound 0.1 µM): 80%
residual activity (PRKACA (human); compound 1.0 µM): 106%
residual activity (PRKACA (human); compound 10.0 µM): 84%
residual activity (MAPK1 (human); compound 0.1 µM): 93%
residual activity (MAPK1 (human); compound 1.0 µM): 103%
residual activity (MAPK1 (human); compound 10.0 µM): 97%
residual activity (MELK (human); compound 0.1 µM): 97%
residual activity (MELK (human); compound 1.0 µM): 74%
residual activity (MELK (human); compound 10.0 µM): 52%
residual activity (ERBB4 (human); compound 1.0 µM): 80%
residual activity (ERBB4 (human); compound 10.0 µM): 86%
residual activity (MAP2K2 (human); compound 1.0 µM): 109%
residual activity (MAP2K2 (human); compound 10.0 µM): 90%
residual activity (TTK (human); compound 1.0 µM): 85%
residual activity (TTK (human); compound 10.0 µM): 68%
residual activity (CSNK2A1 (human); compound 0.1 µM): 90%
residual activity (CSNK2A1 (human); compound 1.0 µM): 102%
residual activity (CSNK2A1 (human); compound 10.0 µM): 77%
residual activity (SRC (human); compound 0.1 µM): 85%
residual activity (SRC (human); compound 1.0 µM): 93%
residual activity (SRC (human); compound 10.0 µM): 121%
residual activity (EEF2K (human); compound 0.1 µM): 102%
residual activity (EEF2K (human); compound 1.0 µM): 106%
residual activity (EEF2K (human); compound 10.0 µM): 117%
residual activity (LCK (mouse); compound 0.1 µM): 88%
residual activity (LCK (mouse); compound 1.0 µM): 106%
residual activity (LCK (mouse); compound 10.0 µM): 58%
residual activity (MARK4 (human); compound 1.0 µM): 110%
residual activity (MARK4 (human); compound 10.0 µM): 85%
residual activity (EPHB3 (human); compound 0.1 µM): 99%
residual activity (EPHB3 (human); compound 1.0 µM): 99%
residual activity (EPHB3 (human); compound 10.0 µM): 90%
residual activity (IKBKB (human); compound 0.1 µM): 84%
residual activity (IKBKB (human); compound 1.0 µM): 93%
residual activity (IKBKB (human); compound 10.0 µM): 84%
residual activity (DAPK1 (human); compound 1.0 µM): 68%
residual activity (DAPK1 (human); compound 10.0 µM): 25%
residual activity (ROCK2 (rat); compound 0.1 µM): 100%
residual activity (ROCK2 (rat); compound 1.0 µM): 89%
residual activity (ROCK2 (rat); compound 10.0 µM): 79%
residual activity (MAPKAPK3 (human); compound 1.0 µM): 90%
residual activity (MAPKAPK3 (human); compound 10.0 µM): 100%
residual activity (PRKCZ (human); compound 0.1 µM): 78%
residual activity (PRKCZ (human); compound 1.0 µM): 105%
residual activity (PRKCZ (human); compound 10.0 µM): 103%
residual activity ([1]; compound 1.0 µM): 93%
residual activity ([1]; compound 10.0 µM): 97%

COc1cc2ncn(-c3cc(OCc4ccccc4S(C)(=O)=O)c(C#N)s3)c2cc1OC
residual activity (PHKG1 (human); compound 1.0 µM): 5%
residual activity (PHKG1 (human); compound 10.0 µM): 4%
residual activity (FGFR1 (human); compound 1.0 µM): 49%
residual activity (FGFR1 (human); compound 10.0 µM): 49%
residual activity (MAPK13 (human); compound 1.0 µM): 112%
residual activity (MAPK13 (human); compound 10.0 µM): 86%
residual activity (CHEK2 (human); compound 1.0 µM): 19%
residual activity (CHEK2 (human); compound 10.0 µM): 19%
residual activity (NTRK1 (human); compound 1.0 µM): 30%
residual activity (NTRK1 (human); compound 10.0 µM): 28%
residual activity (AURKB (human); compound 1.0 µM): 6%
residual activity (AURKB (human); compound 10.0 µM): 4%
residual activity (RPS6KA1 KD1 KD2 (human); compound 1.0 µM): 50%
residual activity (RPS6KA1 KD1 KD2 (human); compound 10.0 µM): 28%
residual activity (MKNK1 (human); compound 1.0 µM): 47%
residual activity (MKNK1 (human); compound 10.0 µM): 34%
residual activity (INSRR (human); compound 1.0 µM): 77%
residual activity (INSRR (human); compound 10.0 µM): 66%
residual activity (MINK1 (human); compound 1.0 µM): 5%
residual activity (MINK1 (human); compound 10.0 µM): 1%
residual activity (MKNK2 (human); compound 1.0 µM): 47%
residual activity (MKNK2 (human); compound 10.0 µM): 35%
residual activity (PRKAA1 or PRKAA2 (rat); compound 1.0 µM): 10%
residual activity (PRKAA1 or PRKAA2 (rat); compound 10.0 µM): 9%
residual activity (CSK (human); compound 1.0 µM): 81%
residual activity (CSK (human); compound 10.0 µM): 74%
residual activity (MYLK (human); compound 1.0 µM): 89%
residual activity (MYLK (human); compound 10.0 µM): 61%
residual activity (MAP3K9 (human); compound 1.0 µM): 28%
residual activity (MAP3K9 (human); compound 10.0 µM): 8%
residual activity (CDK2 CCNA2 (human); compound 1.0 µM): 100%
residual activity (CDK2 CCNA2 (human); compound 10.0 µM): 99%
residual activity (GSK3B (human); compound 1.0 µM): 90%
residual activity (GSK3B (human); compound 10.0 µM): 68%
residual activity (PRKACA (human); compound 1.0 µM): 101%
residual activity (PRKACA (human); compound 10.0 µM): 83%
residual activity (MAPK1 (human); compound 1.0 µM): 104%
residual activity (MAPK1 (human); compound 10.0 µM): 88%
residual activity (MELK (human); compound 1.0 µM): 84%
residual activity (MELK (human); compound 10.0 µM): 59%
residual activity (ERBB4 (human); compound 1.0 µM): 78%
residual activity (ERBB4 (human); compound 10.0 µM): 84%
residual activity (MAP2K2 (human); compound 1.0 µM): 75%
residual activity (MAP2K2 (human); compound 10.0 µM): 57%
residual activity (TTK (human); compound 1.0 µM): 83%
residual activity (CSNK2A1 (human); compound 1.0 µM): 118%
residual activity (CSNK2A1 (human); compound 10.0 µM): 107%
residual activity (SRC (human); compound 1.0 µM): 57%
residual activity (SRC (human); compound 10.0 µM): 64%
residual activity (EEF2K (human); compound 1.0 µM): 105%
residual activity (EEF2K (human); compound 10.0 µM): 98%
residual activity (LCK (mouse); compound 1.0 µM): 35%
residual activity (LCK (mouse); compound 10.0 µM): 33%
residual activity (MARK4 (human); compound 1.0 µM): 57%
residual activity (MARK4 (human); compound 10.0 µM): 42%
residual activity (EPHB3 (human); compound 1.0 µM): 40%
residual activity (EPHB3 (human); compound 10.0 µM): 27%
residual activity (IKBKB (human); compound 1.0 µM): 103%
residual activity (IKBKB (human); compound 10.0 µM): 78%
residual activity (DAPK1 (human); compound 1.0 µM): 54%
residual activity (DAPK1 (human); compound 10.0 µM): 51%
residual activity (ROCK2 (rat); compound 1.0 µM): 93%
residual activity (ROCK2 (rat); compound 10.0 µM): 61%
residual activity (MAPKAPK3 (human); compound 1.0 µM): 93%
residual activity (MAPKAPK3 (human); compound 10.0 µM): 67%
residual activity (PRKCZ (human); compound 1.0 µM): 97%
residual activity (PRKCZ (human); compound 10.0 µM): 95%
residual activity ([1]; compound 1.0 µM): 80%
residual activity ([1]; compound 10.0 µM): 62%
